How the values were obtained:
[1] = target: Cyclin-dependent kinase 15 (Homo sapiens) (UniProt Q96Q40); conditions: Compound concentration 1000.0 nM
[2] = target: T1, Interleukin-1 receptor-associated kinase 4 (Homo sapiens) (UniProt Q9NWZ3); conditions: Compound concentration 1000.0 nM
T1 sequence (whole entry): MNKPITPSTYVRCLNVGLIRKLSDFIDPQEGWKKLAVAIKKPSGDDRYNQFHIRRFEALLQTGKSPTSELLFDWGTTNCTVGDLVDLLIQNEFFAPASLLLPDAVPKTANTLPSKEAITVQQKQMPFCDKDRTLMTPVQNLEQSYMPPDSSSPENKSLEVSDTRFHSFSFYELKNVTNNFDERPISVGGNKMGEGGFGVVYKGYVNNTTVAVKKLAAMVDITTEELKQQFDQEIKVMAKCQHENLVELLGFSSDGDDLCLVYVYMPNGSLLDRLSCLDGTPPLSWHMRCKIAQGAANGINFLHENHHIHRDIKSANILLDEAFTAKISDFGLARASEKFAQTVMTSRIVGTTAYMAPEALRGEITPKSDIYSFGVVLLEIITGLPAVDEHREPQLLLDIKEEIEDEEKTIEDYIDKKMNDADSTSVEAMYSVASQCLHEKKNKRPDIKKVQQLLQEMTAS

[3] = target: T2, Serine/threonine-protein kinase Sgk3 (Homo sapiens) (UniProt Q96BR1); conditions: Compound concentration 1000.0 nM
T2 sequence (whole entry): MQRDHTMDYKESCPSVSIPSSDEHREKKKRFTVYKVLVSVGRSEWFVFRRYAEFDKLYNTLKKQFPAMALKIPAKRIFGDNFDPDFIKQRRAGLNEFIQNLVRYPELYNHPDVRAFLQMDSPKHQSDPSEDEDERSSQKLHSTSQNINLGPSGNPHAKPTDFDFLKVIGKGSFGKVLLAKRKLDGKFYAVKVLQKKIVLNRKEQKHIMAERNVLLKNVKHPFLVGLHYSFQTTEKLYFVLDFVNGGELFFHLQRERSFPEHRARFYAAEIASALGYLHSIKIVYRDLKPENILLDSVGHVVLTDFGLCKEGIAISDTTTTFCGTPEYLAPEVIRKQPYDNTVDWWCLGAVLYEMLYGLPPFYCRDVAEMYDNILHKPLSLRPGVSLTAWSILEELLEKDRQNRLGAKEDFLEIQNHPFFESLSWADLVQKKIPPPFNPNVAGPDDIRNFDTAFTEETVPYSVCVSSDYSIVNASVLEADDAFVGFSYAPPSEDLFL

[4] = target: Epidermal growth factor receptor (Homo sapiens) (UniProt P00533); conditions: Compound concentration 1000.0 nM
[5] = target: Proto-oncogene tyrosine-protein kinase receptor Ret (Homo sapiens) (UniProt P07949); conditions: Compound concentration 1000.0 nM
[6] = target: T3, Ephrin type-A receptor 1 (Homo sapiens) (UniProt P21709); conditions: Compound concentration 1000.0 nM
T3 sequence (whole entry): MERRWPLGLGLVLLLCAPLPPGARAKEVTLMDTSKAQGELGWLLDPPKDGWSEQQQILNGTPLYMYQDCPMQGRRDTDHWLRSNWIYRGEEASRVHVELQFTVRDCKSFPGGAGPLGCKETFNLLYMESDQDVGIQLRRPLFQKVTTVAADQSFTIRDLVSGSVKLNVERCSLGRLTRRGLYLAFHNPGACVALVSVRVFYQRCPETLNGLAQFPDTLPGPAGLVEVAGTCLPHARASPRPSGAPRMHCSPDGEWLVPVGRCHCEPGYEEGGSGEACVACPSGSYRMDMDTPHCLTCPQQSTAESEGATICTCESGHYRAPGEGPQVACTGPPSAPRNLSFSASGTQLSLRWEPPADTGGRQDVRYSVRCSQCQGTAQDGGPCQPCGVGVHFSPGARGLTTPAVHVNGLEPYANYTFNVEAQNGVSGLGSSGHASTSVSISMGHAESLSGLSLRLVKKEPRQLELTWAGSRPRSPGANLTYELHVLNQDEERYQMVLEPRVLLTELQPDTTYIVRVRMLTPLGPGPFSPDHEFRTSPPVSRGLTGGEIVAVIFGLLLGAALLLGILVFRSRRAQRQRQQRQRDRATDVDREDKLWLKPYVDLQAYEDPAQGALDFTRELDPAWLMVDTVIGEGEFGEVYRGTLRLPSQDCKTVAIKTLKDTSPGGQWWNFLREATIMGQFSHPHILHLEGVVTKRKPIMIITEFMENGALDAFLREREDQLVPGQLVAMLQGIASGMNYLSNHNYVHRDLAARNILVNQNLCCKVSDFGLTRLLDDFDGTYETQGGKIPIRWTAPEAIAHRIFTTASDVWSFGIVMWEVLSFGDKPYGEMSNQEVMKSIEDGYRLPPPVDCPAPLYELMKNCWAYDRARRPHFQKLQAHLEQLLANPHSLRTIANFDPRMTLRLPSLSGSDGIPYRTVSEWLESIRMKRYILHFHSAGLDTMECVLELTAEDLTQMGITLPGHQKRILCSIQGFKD

[7] = target: Mitogen-activated protein kinase kinase kinase 11 (Homo sapiens) (UniProt Q16584); conditions: Compound concentration 1000.0 nM
[8] = target: Membrane-associated tyrosine- and threonine-specific cdc2-inhibitory kinase (Homo sapiens) (UniProt Q99640); conditions: Compound concentration 1000.0 nM
[9] = target: Epithelial discoidin domain-containing receptor 1 (Homo sapiens) (UniProt Q08345); conditions: Compound concentration 1000.0 nM
[10] = target: Activin receptor type-2B (Homo sapiens) (UniProt Q13705); conditions: Compound concentration 1000.0 nM
[11] = target: Tyrosine-protein kinase JAK2 (Homo sapiens) (UniProt O60674); conditions: Compound concentration 1000.0 nM
[12] = target: Serine/threonine-protein kinase PAK 5 (Homo sapiens) (UniProt Q9P286); conditions: Compound concentration 1000.0 nM
[13] = target: Beta-3 adrenergic receptor (Homo sapiens) (UniProt P13945); conditions: Compound concentration 10.0 uM
[14] = system: Mast/stem cell growth factor receptor Kit (Homo sapiens), P10721 [V559D]; conditions: Compound concentration 1000.0 nM
Chain of Mast/stem cell growth factor receptor Kit (Homo sapiens), P10721 [V559D] (P10721 whole entry V559D): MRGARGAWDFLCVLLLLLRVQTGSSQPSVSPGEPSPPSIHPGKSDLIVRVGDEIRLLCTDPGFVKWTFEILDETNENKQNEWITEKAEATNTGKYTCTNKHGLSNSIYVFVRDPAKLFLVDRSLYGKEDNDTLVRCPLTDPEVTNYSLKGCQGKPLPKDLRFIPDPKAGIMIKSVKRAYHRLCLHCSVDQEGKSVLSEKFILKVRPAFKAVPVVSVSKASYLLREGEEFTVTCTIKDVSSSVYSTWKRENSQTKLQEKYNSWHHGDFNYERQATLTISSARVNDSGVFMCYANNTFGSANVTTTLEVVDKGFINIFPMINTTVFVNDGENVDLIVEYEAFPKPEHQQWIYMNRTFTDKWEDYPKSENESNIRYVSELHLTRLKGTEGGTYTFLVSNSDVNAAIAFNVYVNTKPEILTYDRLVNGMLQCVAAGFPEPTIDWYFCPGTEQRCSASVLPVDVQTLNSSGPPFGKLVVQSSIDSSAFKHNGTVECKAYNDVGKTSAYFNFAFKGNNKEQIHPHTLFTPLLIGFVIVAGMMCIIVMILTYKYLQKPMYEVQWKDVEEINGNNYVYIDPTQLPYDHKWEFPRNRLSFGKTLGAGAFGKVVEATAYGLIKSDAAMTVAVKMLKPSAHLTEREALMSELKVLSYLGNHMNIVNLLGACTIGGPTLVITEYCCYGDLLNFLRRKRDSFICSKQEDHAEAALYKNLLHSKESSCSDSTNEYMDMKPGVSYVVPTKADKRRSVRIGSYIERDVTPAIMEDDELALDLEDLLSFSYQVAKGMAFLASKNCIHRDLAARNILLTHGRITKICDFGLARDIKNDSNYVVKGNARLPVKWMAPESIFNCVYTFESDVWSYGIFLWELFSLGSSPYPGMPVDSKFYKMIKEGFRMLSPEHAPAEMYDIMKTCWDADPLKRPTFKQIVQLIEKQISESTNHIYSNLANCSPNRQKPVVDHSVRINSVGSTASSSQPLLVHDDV

Chain of Serine/threonine-protein kinase PAK 5 (Homo sapiens) (Q9P286 whole entry, looked up): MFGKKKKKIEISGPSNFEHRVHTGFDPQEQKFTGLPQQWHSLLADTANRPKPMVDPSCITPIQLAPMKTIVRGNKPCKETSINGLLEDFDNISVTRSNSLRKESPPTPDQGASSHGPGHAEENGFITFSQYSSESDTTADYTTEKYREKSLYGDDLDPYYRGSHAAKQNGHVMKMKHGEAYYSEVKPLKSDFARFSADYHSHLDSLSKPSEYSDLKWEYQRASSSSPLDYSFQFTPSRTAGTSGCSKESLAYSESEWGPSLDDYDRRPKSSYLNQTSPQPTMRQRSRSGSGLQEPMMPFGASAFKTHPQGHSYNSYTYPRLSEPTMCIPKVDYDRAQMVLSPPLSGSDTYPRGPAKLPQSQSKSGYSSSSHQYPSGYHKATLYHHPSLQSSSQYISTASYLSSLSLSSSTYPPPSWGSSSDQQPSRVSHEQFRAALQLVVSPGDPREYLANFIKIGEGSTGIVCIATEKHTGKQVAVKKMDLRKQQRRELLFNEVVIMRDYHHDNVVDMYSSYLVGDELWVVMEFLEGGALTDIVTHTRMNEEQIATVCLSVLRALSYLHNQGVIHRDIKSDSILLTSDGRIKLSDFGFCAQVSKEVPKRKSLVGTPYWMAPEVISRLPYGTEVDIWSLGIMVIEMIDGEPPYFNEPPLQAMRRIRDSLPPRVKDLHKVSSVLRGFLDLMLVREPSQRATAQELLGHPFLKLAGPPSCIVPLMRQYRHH
Chain of Proto-oncogene tyrosine-protein kinase receptor Ret (Homo sapiens) (P07949 whole entry): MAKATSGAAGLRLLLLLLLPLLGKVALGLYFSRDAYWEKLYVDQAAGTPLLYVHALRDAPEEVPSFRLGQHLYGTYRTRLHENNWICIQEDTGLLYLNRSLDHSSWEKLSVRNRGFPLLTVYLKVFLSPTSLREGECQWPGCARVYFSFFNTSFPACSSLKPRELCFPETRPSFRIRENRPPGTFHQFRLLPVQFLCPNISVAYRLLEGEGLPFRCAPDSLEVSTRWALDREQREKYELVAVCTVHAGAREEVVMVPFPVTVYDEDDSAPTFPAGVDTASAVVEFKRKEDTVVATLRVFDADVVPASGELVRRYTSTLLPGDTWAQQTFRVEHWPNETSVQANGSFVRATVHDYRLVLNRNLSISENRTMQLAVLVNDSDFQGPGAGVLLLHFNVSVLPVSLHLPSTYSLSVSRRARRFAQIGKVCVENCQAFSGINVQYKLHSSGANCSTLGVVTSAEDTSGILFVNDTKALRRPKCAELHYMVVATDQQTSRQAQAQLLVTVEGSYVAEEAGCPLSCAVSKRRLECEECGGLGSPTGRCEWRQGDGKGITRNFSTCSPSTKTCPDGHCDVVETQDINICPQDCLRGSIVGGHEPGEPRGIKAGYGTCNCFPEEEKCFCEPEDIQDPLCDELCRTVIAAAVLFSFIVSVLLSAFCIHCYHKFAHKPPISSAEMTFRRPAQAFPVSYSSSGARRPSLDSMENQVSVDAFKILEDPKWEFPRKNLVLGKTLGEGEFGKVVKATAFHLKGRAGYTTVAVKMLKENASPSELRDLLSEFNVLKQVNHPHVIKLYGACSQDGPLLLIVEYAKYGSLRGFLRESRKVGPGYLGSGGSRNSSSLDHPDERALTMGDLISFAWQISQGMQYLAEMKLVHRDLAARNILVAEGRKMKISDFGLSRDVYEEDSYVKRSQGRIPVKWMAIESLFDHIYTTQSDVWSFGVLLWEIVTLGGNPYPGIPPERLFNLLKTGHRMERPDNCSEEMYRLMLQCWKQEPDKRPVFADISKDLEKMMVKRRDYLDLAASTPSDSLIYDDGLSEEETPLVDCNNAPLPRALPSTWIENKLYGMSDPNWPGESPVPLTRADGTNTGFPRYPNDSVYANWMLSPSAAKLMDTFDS
Chain of Epidermal growth factor receptor (Homo sapiens) (P00533 whole entry): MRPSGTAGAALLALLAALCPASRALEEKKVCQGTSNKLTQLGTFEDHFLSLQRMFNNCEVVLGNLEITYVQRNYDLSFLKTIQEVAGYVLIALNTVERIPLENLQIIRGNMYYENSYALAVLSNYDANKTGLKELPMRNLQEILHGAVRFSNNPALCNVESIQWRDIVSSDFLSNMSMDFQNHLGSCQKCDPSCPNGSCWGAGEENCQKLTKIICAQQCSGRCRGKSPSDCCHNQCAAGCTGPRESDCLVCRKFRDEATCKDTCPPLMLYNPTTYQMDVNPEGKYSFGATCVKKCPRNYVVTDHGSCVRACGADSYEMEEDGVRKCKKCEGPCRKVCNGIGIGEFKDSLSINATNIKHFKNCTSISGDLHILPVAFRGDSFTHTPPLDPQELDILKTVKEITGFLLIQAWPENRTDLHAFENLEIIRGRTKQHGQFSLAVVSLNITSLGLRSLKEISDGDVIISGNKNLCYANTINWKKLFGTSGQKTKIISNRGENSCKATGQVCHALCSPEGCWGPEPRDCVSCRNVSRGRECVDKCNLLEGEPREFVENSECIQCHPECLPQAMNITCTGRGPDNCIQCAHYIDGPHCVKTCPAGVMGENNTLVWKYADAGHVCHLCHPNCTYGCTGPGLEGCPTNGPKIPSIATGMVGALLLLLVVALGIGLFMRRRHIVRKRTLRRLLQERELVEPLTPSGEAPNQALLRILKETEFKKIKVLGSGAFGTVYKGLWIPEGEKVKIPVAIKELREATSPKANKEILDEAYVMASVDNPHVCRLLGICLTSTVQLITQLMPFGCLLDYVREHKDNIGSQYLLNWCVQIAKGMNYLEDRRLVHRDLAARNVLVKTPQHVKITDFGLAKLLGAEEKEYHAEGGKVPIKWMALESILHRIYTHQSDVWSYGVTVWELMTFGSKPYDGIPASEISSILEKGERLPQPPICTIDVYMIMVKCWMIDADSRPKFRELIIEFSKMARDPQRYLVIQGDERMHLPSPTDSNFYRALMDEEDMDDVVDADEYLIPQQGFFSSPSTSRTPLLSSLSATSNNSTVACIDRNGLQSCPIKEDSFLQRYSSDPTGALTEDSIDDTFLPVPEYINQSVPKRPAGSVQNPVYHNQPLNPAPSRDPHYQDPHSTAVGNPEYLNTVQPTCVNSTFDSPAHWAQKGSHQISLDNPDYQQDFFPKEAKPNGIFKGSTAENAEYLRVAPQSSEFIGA
Chain of Cyclin-dependent kinase 15 (Homo sapiens) (Q96Q40 whole entry): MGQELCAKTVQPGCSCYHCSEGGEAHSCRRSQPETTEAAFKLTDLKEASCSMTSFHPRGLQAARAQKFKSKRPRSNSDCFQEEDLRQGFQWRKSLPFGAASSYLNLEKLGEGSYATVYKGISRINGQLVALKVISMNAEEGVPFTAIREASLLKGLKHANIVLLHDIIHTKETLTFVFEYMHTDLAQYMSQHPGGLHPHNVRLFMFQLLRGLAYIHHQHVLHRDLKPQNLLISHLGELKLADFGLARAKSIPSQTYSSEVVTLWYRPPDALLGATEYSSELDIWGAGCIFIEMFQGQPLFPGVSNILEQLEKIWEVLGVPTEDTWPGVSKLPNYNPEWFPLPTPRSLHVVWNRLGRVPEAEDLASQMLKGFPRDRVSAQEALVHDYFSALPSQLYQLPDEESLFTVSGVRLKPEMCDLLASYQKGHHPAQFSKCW
Chain of Membrane-associated tyrosine- and threonine-specific cdc2-inhibitory kinase (Homo sapiens) (Q99640 whole entry, the tested form may be a part): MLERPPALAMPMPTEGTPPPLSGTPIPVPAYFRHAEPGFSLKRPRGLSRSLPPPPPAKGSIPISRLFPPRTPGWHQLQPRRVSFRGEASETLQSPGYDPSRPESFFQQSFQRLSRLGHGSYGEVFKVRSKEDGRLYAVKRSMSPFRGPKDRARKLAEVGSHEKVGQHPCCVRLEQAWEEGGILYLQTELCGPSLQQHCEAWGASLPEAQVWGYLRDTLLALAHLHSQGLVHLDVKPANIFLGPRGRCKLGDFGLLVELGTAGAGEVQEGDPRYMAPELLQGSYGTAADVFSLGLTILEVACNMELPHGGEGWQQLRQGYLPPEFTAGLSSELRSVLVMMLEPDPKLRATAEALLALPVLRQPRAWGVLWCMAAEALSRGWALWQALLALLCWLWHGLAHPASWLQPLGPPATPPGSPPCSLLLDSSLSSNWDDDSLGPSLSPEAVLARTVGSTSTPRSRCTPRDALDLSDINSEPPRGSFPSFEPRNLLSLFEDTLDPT

CN(C)C(=O)Cn1cc(-c2nc(C3(c4ccc(-c5cnc(N)nc5)cc4)CC3)no2)cn1 [BI 0153]
inactive: residual activity [1] 100% | residual activity [2] 84% | residual activity [3] 75% | residual activity [4] 93% | residual activity [5] 94% | residual activity [6] 100% | residual activity [7] 87% | residual activity [8] 90% | residual activity [9] 86% | residual activity [10] 96% | residual activity [11] 65% | residual activity [12] 88% | inhibition [13] 3.06% | residual activity [14] 100%

CN(C)C(=O)Cn1cc(-c2nc([C@@](C)(c3ccc(-c4cnc(N)nc4)cc3)C3CC3)no2)cn1 [BI 665915]
inactive: residual activity [1] 94% | residual activity [2] 85% | residual activity [3] 76% | residual activity [4] 93% | residual activity [5] 94% | residual activity [6] 97% | residual activity [7] 77% | residual activity [8] 88% | residual activity [9] 90% | residual activity [10] 81% | residual activity [11] 73% | residual activity [12] 100% | inhibition [13] 9.54% | residual activity [14] 91%

Source: ChEMBL document CHEMBL4507276 (2021)
